# Experimental data as given in ChEMBL document CHEMBL5625167, “In vitro bioevaluation and docking study of dihydrosphingosine and ethambutol analogues against sensitive and multi-drug resistant Mycobacterium tuberculosis” (Eur J Med Chem, 2023).
# Where “and” joins values, the source holds several entries; their conditions need not be identical. Equal entries are not always repeated.
# Key:
# Assay type in all cases: functional
# [1] = tested on: Mycobacterium tuberculosis; experiment: Antimycobacterial activity against isoniazid, rifampicin, ethambutol, streptomycin and levofloxacin resistant Mycobacterium tuberculosis clinical isolate 1576 incubated for 7 days by resazurin dye based colorimetric method analysis; details: Mycobacterium tuberculosis, 1576, 168 h; time 7 day
# [2] = tested on: Mycobacterium tuberculosis; experiment: Antimycobacterial activity against pre-extensively drug resistant Mycobacterium tuberculosis 1576 incubated for 7 days by resazurin dye based two-dimensional micro dilution checkerboard assay in presence of 1-((3,4,5-trimethoxybenzyl)oxy)heptadecan-2-amine; details: time 7 day
# [3] = tested on: Mycobacterium tuberculosis; experiment: Antimycobacterial activity against pre-extensively drug resistant Mycobacterium tuberculosis 1576 incubated for 7 days by resazurin dye based two-dimensional micro dilution checkerboard assay in presence of 2-aminoheptadecan-1-ol; details: time 7 day
# [4] = tested on: Mycobacterium tuberculosis; experiment: Antimycobacterial activity against pre-extensively drug resistant Mycobacterium tuberculosis 1576 incubated for 7 days by resazurin dye based two-dimensional micro dilution checkerboard assay in presence of 1-(benzyloxy)heptadecan-2-amine; details: time 7 day
# [5] = tested on: Mycobacterium tuberculosis; experiment: Additive antimycobacterial activity against pre-extensively drug resistant Mycobacterium tuberculosis 1576 assessed as fractional inhibitory concentration index incubated for 7 days by resazurin dye based two-dimensional micro dilution checkerboard assay in presence of isoniazid; details: time 7 day
# [6] = tested on: Mycobacterium tuberculosis; experiment: Additive antimycobacterial activity against pre-extensively drug resistant Mycobacterium tuberculosis 1576 assessed as fractional inhibitory concentration index incubated for 7 days by resazurin dye based two-dimensional micro dilution checkerboard assay in presence of levofloxacin; details: time 7 day
# [7] = tested on: Mycobacterium tuberculosis; experiment: Additive antimycobacterial activity against pre-extensively drug resistant Mycobacterium tuberculosis 1576 incubated for 7 days by resazurin dye based two-dimensional micro dilution checkerboard assay in presence of levofloxacin; details: time 7 day
# [8] = tested on: Mycobacterium tuberculosis; experiment: Antimycobacterial activity against pre-extensively drug resistant Mycobacterium tuberculosis 1576 assessed as fractional inhibitory concentration index incubated for 7 days by resazurin dye based two-dimensional micro dilution checkerboard assay in presence of rifampicin; details: time 7 day
# [9] = tested on: Mycobacterium tuberculosis; experiment: Additive antimycobacterial activity against pre-extensively drug resistant Mycobacterium tuberculosis 1576 assessed as fractional inhibitory concentration index incubated for 48 hrs by micro dilution checkerboard assay in presence of rifampicin
# [10] = tested on: Mycobacterium tuberculosis; experiment: Additive antimycobacterial activity against pre-extensively drug resistant Mycobacterium tuberculosis 1576 incubated for 7 days by resazurin dye based two-dimensional micro dilution checkerboard assay in presence of ethambutol; details: time 7 day
# [11] = tested on: Mycobacterium tuberculosis; experiment: Additive antimycobacterial activity against pre-extensively drug resistant Mycobacterium tuberculosis 1576 assessed as fractional inhibitory concentration index incubated for 7 days by resazurin dye based two-dimensional micro dilution checkerboard assay in presence of ethambutol; details: time 7 day
# [12] = tested on: Mycobacterium tuberculosis; experiment: Additive antimycobacterial activity against pre-extensively drug resistant Mycobacterium tuberculosis 1576 assessed as fractional inhibitory concentration index incubated for 7 days by resazurin dye based two-dimensional micro dilution checkerboard assay in presence of amikacin; details: time 7 day
# [13] = tested on: Mycobacterium tuberculosis; experiment: Antimycobacterial activity against pre-extensively drug resistant Mycobacterium tuberculosis 1576 incubated for 7 days by resazurin dye based two-dimensional micro dilution checkerboard assay in presence of rifampicin; details: time 7 day
# [14] = tested on: Mycobacterium tuberculosis; experiment: Additive antimycobacterial activity against pre-extensively drug resistant Mycobacterium tuberculosis 1576 incubated for 7 days by resazurin dye based two-dimensional micro dilution checkerboard assay in presence of isoniazid; details: time 7 day
# [15] = tested on: Mycobacterium tuberculosis; experiment: Additive antimycobacterial activity against pre-extensively drug resistant Mycobacterium tuberculosis 1576 incubated for 7 days by resazurin dye based two-dimensional micro dilution checkerboard assay in presence of amikacin; details: time 7 day
# [16] = tested on: Mycobacterium tuberculosis; experiment: Synergistic antimycobacterial activity against pre-extensively drug resistant Mycobacterium tuberculosis 1576 assessed as fractional inhibitory concentration index incubated for 7 days by resazurin dye based two-dimensional micro dilution checkerboard assay in presence of rifampicin; details: time 7 day
# [17] = tested on: Mycobacterium tuberculosis; experiment: Antimycobacterial activity against pre-extensively drug resistant Mycobacterium tuberculosis 1576 assessed as reduction in CFU count at 8 uM in presence of rifampicin measured after 12 days relative to control; parameters: scale not given: the % may be the effect or the level left; details: time 12 day
# [18] = tested on: Mycobacterium tuberculosis; experiment: Antimycobacterial activity against pre-extensively drug resistant Mycobacterium tuberculosis 1576 assessed as reduction in CFU count at 8 uM measured after 12 days relative to control; parameters: scale not given: the % may be the effect or the level left; details: time 12 day
# [19] = tested on: Mycobacterium tuberculosis; experiment: Synergistic antimycobacterial activity against pre-extensively drug resistant Mycobacterium tuberculosis 1576 incubated for 7 days by resazurin dye based two-dimensional micro dilution checkerboard assay in presence of rifampicin; details: time 7 day
# [20] = tested on: Mycobacterium tuberculosis; experiment: Synergistic antimycobacterial activity against pre-extensively drug resistant Mycobacterium tuberculosis 1576 assessed as reduction in concentration required to inhibit bacterial growth incubated for 7 days by resazurin dye based two-dimensional micro dilution checkerboard assay in presence of rifampicin relative to control; parameters: scale not given: the % may be the effect or the level left; details: time 7 day
smiles,measurement,setting,value
CCCCCCCCCCCC(CO)NCC (configuration not stated),MIC,[1],64 µM
CCCCCCCCCCCCCCCCCCCC(CNCC)NC(=O)OC(C)(C)C (configuration not stated),MIC,[1],4 µM
CCCCCCCCCCCC(N)CO (configuration not stated),MIC,[1],32 µM
CCCCCCCCCCCC(CO)N(CC)CC (configuration not stated),MIC,[1],32 µM
CCCCCCCCCCCCCCCCCCCC(N)COCc1ccccc1 (configuration not stated),MIC,[1],32 µM
CCCCCCCCCCCCCCCCCC(CO)N(CC)CC (configuration not stated),MIC,[1],> 64 µM
CCCCCCCCCCCC(CNCC)NC(=O)OC(C)(C)C (configuration not stated),MIC,[1],64 µM
CCCCc1ccc(CCCCCCCC(CO)NC(=O)OC(C)(C)C)cc1 (configuration not stated),MIC,[1],16 µM
NCC[C@H](O)C(=O)N[C@@H]1C[C@H](N)[C@@H](O[C@H]2O[C@H](CN)[C@@H](O)[C@H](O)[C@H]2O)[C@H](O)[C@H]1O[C@H]1O[C@H](CO)[C@@H](O)[C@H](N)[C@H]1O [AMIKACIN],FIC,[2],0.25
same,FIC,[3],0.25
same,MIC,[1],0.8 µM and 0.63 µg/mL
same,FIC,[4],0.125
CCCCCCCCCCCCCCCC(COCc1ccccc1)NCCCCCC (configuration not stated),MIC,[1],64 µM
NNC(=O)c1ccncc1 [ISONIAZID],FIC,[2],0.5
same,FIC,[3],0.125
same,MIC,[1],934 µM and 128 µg/mL
same,FIC,[4],0.125
CCCCc1ccc(CCCCCCCCCC(N)CO)cc1 (configuration not stated),MIC,[1],2 µM
CCCCCCCCCCCCCCCC(CNCC(=O)OCC)NC(=O)OC(C)(C)C (configuration not stated),MIC,[1],32 µM
CCCCCCCCCCCCCCCCCC(N)CO (configuration not stated),MIC,[1],8 µM
CCCCCCCCCCCCCCCC(N)CN (configuration not stated),MIC,[1],390 µM
CCCCCCCCCCCCCCCCCCCC(CO)N(CC)CC (configuration not stated),MIC,[1],> 64 µM
CCCCCCCCCCCCCCCC(CNCCCCCC)NC(=O)OC(C)(C)C (configuration not stated),MIC,[1],8 µM
CCCCCCCCCCCCCCCC(CO)NCCCC (configuration not stated),MIC,[1],64 µM
CCCCCCCCCCCCCCCC(CO)N(CCCC)CCCC (configuration not stated),MIC,[1],8 µM
CCCCCCCCCCCC(CO)NCCCC (configuration not stated),MIC,[1],32 µM
CCCCCCCCCCCCCCCC(CO)N(CC)CC (configuration not stated),MIC,[1],32 µM
CCCCc1ccc(CCCCCCCC(N)CO)cc1 (configuration not stated),MIC,[1],2 µM
CCCCCCCCCCCCCCCC(CN=[N+]=[N-])NC(=O)OC(C)(C)C (configuration not stated),MIC,[1],16 µM
CCCCCCCCCCCCCCCC(COCc1ccccc1)NCC (configuration not stated),MIC,[1],16 µM
CCCCCCCCCCCCCCCC(CO)NCC (configuration not stated),MIC,[1],32 µM
CCCCCCCCCCCCCCCC(CNCCCC)NC(=O)OC(C)(C)C (configuration not stated),MIC,[1],8 µM
CCCCc1ccc(CCCCCCCCCC(CO)NC(=O)OC(C)(C)C)cc1 (configuration not stated),MIC,[1],16 µM
CC[C@@H](CO)NCCN[C@@H](CC)CO [ETHAMBUTOL],FIC,[2],0.25
same,FIC,[3],0.25
same,MIC,[1],28.8 µM and 8 µg/mL
same,FIC,[4],1
C[C@H]1COc2c(N3CCN(C)CC3)c(F)cc3c(=O)c(C(=O)O)cn1c23 [LEVOFLOXACIN ANHYDROUS],FIC,[2],0.5
same,FIC,[3],0.5
same,MIC,[1],5.5 µM and 2 µg/mL
same,FIC,[4],0.5
CCCCCCCCCCCCCCCC(CO)NCCCCCCCCCC (configuration not stated),MIC,[1],64 µM
CCCCCCCCCCCCCCCC(CO)NCCCCCC (configuration not stated),MIC,[1],64 µM
CCCCCCCCCCCCCCCCCCCC(CN)NC(=O)OC(C)(C)C (configuration not stated),MIC,[1],64 µM
CCCCCCCCCCCCCCCCCC(CN)NC(=O)OC(C)(C)C (configuration not stated),MIC,[1],16 µM
CO[C@H]1/C=C/O[C@@]2(C)Oc3c(C)c(O)c4c(O)c(c(/C=N/N5CCN(C)CC5)c(O)c4c3C2=O)NC(=O)/C(C)=C\C=C\[C@H](C)[C@H](O)[C@@H](C)[C@@H](O)[C@@H](C)[C@H](OC(C)=O)[C@@H]1C [RIFAMPIN],FIC,[2],0.25
same,FIC,[3],0.031
same,MIC,[1],78 µM and 64 µg/mL
same,FIC,[4],0.063
CCCCCCCCCCCCCCCCCCCC(COCc1ccccc1)NCC (configuration not stated),MIC,[1],16 µM
CCCCCCCCCCCCCCCCCC(CO)NCCCC (configuration not stated),MIC,[1],32 µM
CCCCCCCCCCCCCCCC(N)COCc1ccccc1 (configuration not stated),fractional inhibitory concentration index (FICI),[5],0.63
same,MIC,[1],4.5 µM
same,fractional inhibitory concentration index (FICI),[6],1
same,FIC,[7],0.5
same,fractional inhibitory concentration index (FICI),[8],0.56
same,fractional inhibitory concentration index (FICI),[9],0.56
same,FIC,[10],0.5
same,fractional inhibitory concentration index (FICI),[11],1.5
same,fractional inhibitory concentration index (FICI),[12],0.63
same,FIC,[13],0.5
same,FIC,[14],0.5
same,FIC,[15],0.5
CCCCc1ccc(CCCCCC(CO)NC(=O)OC(C)(C)C)cc1 (configuration not stated),MIC,[1],16 µM
CCCCCCCCCCCCCCCC(N)COCc1cc(OC)c(OC)c(OC)c1 (configuration not stated),fractional inhibitory concentration index (FICI),[5],1
same,MIC,[1],8 µM
same,fractional inhibitory concentration index (FICI),[6],1
same,fractional inhibitory concentration index (FICI),[16],0.5
same,FIC,[7],0.5
same,Activity,[17],>=99.9%
same,Activity,[18],>99.9%
same,FIC,[10],0.5
same,FIC,[19],0.25
same,fractional inhibitory concentration index (FICI),[11],0.75
same,fractional inhibitory concentration index (FICI),[12],0.75
same,FIC,[14],0.5
same,FIC,[15],0.5
same,Activity,[20],75%
CCCCCCCCCCCCCCCCCC(COCc1ccccc1)NCCCCCC (configuration not stated),MIC,[1],64 µM
CCCCCCCCCCCCCCCCCC(N)COCc1ccccc1 (configuration not stated),MIC,[1],64 µM
CCCCCCCCCCCCCCCC(N)CNCC (configuration not stated),MIC,[1],16 µM
CCCCCCCCCCCCCCCCCC(CO)NCC (configuration not stated),MIC,[1],16 µM
CCCCCCCCCCCCCCCC(N)CO (configuration not stated),fractional inhibitory concentration index (FICI),[5],0.63
same,MIC,[1],3.03 µM
same,fractional inhibitory concentration index (FICI),[6],1
same,FIC,[7],0.5
same,fractional inhibitory concentration index (FICI),[8],0.53
same,fractional inhibitory concentration index (FICI),[9],0.53
same,FIC,[10],0.5
same,fractional inhibitory concentration index (FICI),[11],0.75
same,fractional inhibitory concentration index (FICI),[12],0.75
same,FIC,[13],0.5
same,FIC,[14],0.5
same,FIC,[15],0.5
CCCCCCCCCCCCCCCC(CN)NC(=O)OC(C)(C)C (configuration not stated),MIC,[1],17.6 µM
CCCCCCCCCCCCCCCC(CNCC)NC(=O)OC(C)(C)C (configuration not stated),MIC,[1],16 µM
CCCCc1ccc(CCCCCC(N)CO)cc1 (configuration not stated),MIC,[1],64 µM
